Results from the supplement of paper PMC8497498.

Experiments:
[1] = system: Plasmodium vivax liver stage (primary human hepatocyte culture)
Protocol: (§1)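 Dose-response of P. vivax liver stages in primary human hepatocytes, with 8 points (10 uM-[…], v1) or 12 points in duplicate (50 uM-280 pM, v2). Read-out is high-content imaging of schizont net growth area, hypnozoite quantity and hepatic nuclei. EC50 and CC20 (20% nuclei loss) were fitted in CDD Vault from the highest-quality independent experiment; toxic-dose bell-shaped points were masked. '>' marks the highest concentration with less than 50% activity, and ND means a non-sigmoidal curve.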

[2] = system: Plasmodium vivax liver stage (primary human hepatocyte culture); test: maximum inhibition of schizont net growth area; higher = more active
Protocol: as §1

[3] = system: primary human hepatocytes; test: CC20 hepatic nuclei (20% reduction); higher = less toxic
Protocol: as §1

[4] = P. vivax isolate: Pv395, hepatocyte lot: UBV, assay mode: Radical Cure, 8-day (treatment from day 5 post-infection)
[5] = P. vivax isolate: Pv756, hepatocyte lot: BGW, assay mode: Radical Cure, 8-day (treatment from day 5 post-infection)
[6] = P. vivax isolate: Pv836, hepatocyte lot: BGW, assay mode: Radical Cure, 8-day (treatment from day 5 post-infection)
[7] = P. vivax isolate: Pv914, hepatocyte lot: BGW, assay mode: Prophylactic, 6-day
[8] = P. vivax isolate: Pv914, hepatocyte lot: BGW, assay mode: Radical Cure, 8-day (treatment from day 5 post-infection)
[9] = P. vivax isolate: Pv360, hepatocyte lot: UBV, assay mode: Radical Cure, 8-day (treatment from day 5 post-infection)
[10] = P. vivax isolate: Pv657, hepatocyte lot: BGW, assay mode: Radical Cure, 8-day (treatment from day 5 post-infection)
[11] = P. vivax isolate: Pv923, hepatocyte lot: BGW, assay mode: Radical Cure, 8-day (treatment from day 5 post-infection)
[12] = P. vivax isolate: IVS16-38, hepatocyte lot: PDC, assay mode: Prophylactic, 6-day

Question: `CCOc1ccc(CCC2CCN(C(C)c3nc(N)nc(N(C)C)n3)CC2)cc1` (stereo not given) was tested. Which EC50 hypnozoite quantity [1, 4] did it give?
Answer: > 10 µM

Question: What about the “EC50 schizont net growth area” value [1, 4] of the same molecule?
Answer: > 3.33 µM

Question: What about the maximum inhibition [2, 4] of the same molecule?
Answer: 64.7%

Question: What about the CC20 hepatic nuclei [3, 4] of the same molecule?
Answer: > 10 µM

Question: How did the EC50 hypnozoite quantity [1, 5] turn out when `NS(=O)(=O)c1cccc(-c2ccc3ncc(N4CCOCC4)nc3c2)c1` was run?
Answer: > 50 µM

Question: And the “EC50 schizont net growth area” value [1, 5]?
Answer: 0.57 µM

Question: And the maximum inhibition [2, 5]?
Answer: 88.2%

Question: And the CC20 hepatic nuclei [3, 5]?
Answer: > 50 µM

Question: Which EC50 hypnozoite quantity [1, 6] does the source give for `Cc1nc(Sc2ncnc3sc4c(c23)CCC4)sc1CC(N)=O` here?
Answer: > 50 µM

Question: And the “EC50 schizont net growth area” value [1, 6]?
Answer: 2.86 µM

Question: What about the maximum inhibition [2, 6] of the same molecule?
Answer: 91%

Question: What about the CC20 hepatic nuclei [3, 6] of the same molecule?
Answer: > 50 µM

Question: For `N=C(N)c1ccc(OCCCCCOc2ccc(C(=N)N)cc2)cc1` [Pentamidine isethionate], which EC50 hypnozoite quantity [1, 7] is on record?
Answer: 5.54 µM

Question: What about the “EC50 schizont net growth area” value [1, 7] of the same molecule?
Answer: 0.551 µM

Question: What about the EC50 hypnozoite quantity [1, 8] of the same molecule?
Answer: > 50 µM

Question: And the “EC50 schizont net growth area” value [1, 8]?
Answer: 8.39 µM

Question: And the maximum inhibition [2, 7]?
Answer: 99.6%

Question: And the maximum inhibition [2, 8]?
Answer: 94.4%

Question: And the CC20 hepatic nuclei [3, 7]?
Answer: 5.54 µM

Question: What about the CC20 hepatic nuclei [3, 8] of the same molecule?
Answer: > 5.56 µM

Question: Which results are given for `CC1CC(C)C(=O)C(C(O)CC2CC(=O)NC(=O)C2)C1` (stereo not given) [Cycloheximide]?
Answer: EC50 hypnozoite quantity [1, 9]: > 10 µM; EC50 schizont net growth area [1, 9]: 0.0856 µM; EC50 hypnozoite quantity [1, 7]: > 3.33 µM; EC50 schizont net growth area [1, 7]: 1.39 µM; maximum inhibition [2, 9]: 96.3%; maximum inhibition [2, 7]: 99.6%; CC20 hepatic nuclei [3, 9]: > 10 µM; CC20 hepatic nuclei [3, 7]: > 10 µM

Question: Which results are given for `Nc1ncc(-c2cn[nH]c2)cc1-c1nc2cc(Cl)cnc2[nH]1`?
Answer: EC50 hypnozoite quantity [1, 10]: > 50 µM; EC50 schizont net growth area [1, 10]: > 50 µM; maximum inhibition [2, 10]: 63.7%; CC20 hepatic nuclei [3, 10]: > 50 µM

Question: How did the EC50 hypnozoite quantity [1, 11] turn out when `Cc1ncc(-c2ccnc(Nc3ccc(S(C)(=O)=O)cc3)n2)n1C(C)C` was run?
Answer: > 50 µM

Question: What about the “EC50 schizont net growth area” value [1, 11] of the same molecule?
Answer: > 50 µM

Question: What about the maximum inhibition [2, 11] of the same molecule?
Answer: 69.4%

Question: What about the CC20 hepatic nuclei [3, 11] of the same molecule?
Answer: 1.82 µM

Question: What does the source list for `COc1ccccc1CNC(=O)CCn1c(=O)[nH]c2ccccc2c1=O`?
Answer: EC50 hypnozoite quantity [1, 12]: > 10 µM; EC50 schizont net growth area [1, 12]: 0.68 µM; maximum inhibition [2, 12]: 98.3%; CC20 hepatic nuclei [3, 12]: > 10 µM
